What was measured:
Type in all cases: cell-based, human
senescent fibroblasts [1] = test: SA β-gal activity assay (senescence-associated β-galactosidase kit)
Protocol: (§1) To determine whether the senescent cells subjected to the PDK1 inhibition are reverted to normal young cells, the PDX1 inhibitor BX-795 (Selleckchem) was applied to the senescent fibroblasts. Then, SA β-gal activity assay (senescence-associated β-galactosidase kit), wound healing assay, and fluorescence staining experiments were performed. Thus, the cell cycle change in the senescent cells based on PDK1 Inhibition was checked.
(§2) Specifically, cellular senescence was caused by exposing the cells for 7 days to culture conditions causing senescence, containing 100 ng/ml of IGF1, 100 ng/ml of doxorubicin, 10 % FBS, and 4.5 g/L of glucose. At this time, most of the cells turned senescent. Then, the PDK1 inhibitor was applied to the same culture condition for 7 days. Total 14 days of the application lapsed. […] Ki-67 expression was analyzed to evaluate the division activity of the cells and the results are shown in 4C.
(§3) In order to check whether the same result occurs when other PDK1 inhibitors are used, SA β-gal activity assay was performed in the same manner using PDK1 inhibitor 7. […] Therefore, the number of bluestained senescent cells as SA β-gal activity assay-positive and the total number of cells were counted using an optical microscope. […] In addition, fluorescence staining experiments were performed to check the expression of the cell proliferation marker ki-67.

senescent fibroblasts [2] = test: wound healing assay; conditions: same senescence/inhibitor conditions; growth-condition medium for 7 days; FIG. 4B
Protocol: To determine whether the senescent cells subjected to the PDK1 inhibition are reverted to normal young cells, the PDX1 inhibitor BX-795 (Selleckchem) was applied to the senescent fibroblasts. Then, SA β-gal activity assay (senescence-associated β-galactosidase kit), wound healing assay, and fluorescence staining experiments were performed. Thus, the cell cycle change in the senescent cells based on PDK1 Inhibition was checked. Specifically, cellular senescence was caused by exposing the cells for 7 days to culture conditions causing senescence, containing 100 ng/ml of IGF1, 100 ng/ml of doxorubicin, 10 % FBS, and 4.5 g/L of glucose. At this time, most of the cells turned senescent. Then, the PDK1 inhibitor was applied to the same culture condition for 7 days. Total 14 days of the application lapsed. Then, the cells were treated with growth media free of IGF1, doxorubicin, or PDK1 inhibitor. The wound healing assay was performed under the same conditions. Ki-67 expression was analyzed to evaluate the division activity of the cells and the results are shown in 4C.

senescent fibroblasts [3] = test: ki-67 fluorescence staining (cell division/proliferation marker)
Protocol: as §1, §2, §3

| Structure (SMILES) | SA β-gal as an indicator of senescent cells (senescent fibroblasts [1]; senescence induced 7 days with IGF1 100 ng/ml + doxorubicin 100 ng/ml, PDK1 inhibitor applied 7 days, assay one day after change to growth media, FIG. 4A) | cell rejuvenation ability of the senescent cells (wound healing) (senescent fibroblasts [2]) | ki-67 staining, cell division (senescent fibroblasts [3]; cells treated with growth medium at 7 days after the drug application, FIG. 4C) | reduction of SA β-gal stained cells compared with the PDK1 inhibitor non-treated group (senescent fibroblasts [1]; percentage of blue-stained senescent cells counted by optical microscope, statistically significant, FIG. 5A, 5B) [%] | increase of the number of ki-67 positive cells (senescent fibroblasts [3]; PDK1 inhibitor applied to senescent cells, FIG. 5C, 5D) [%] |
| --- | --- | --- | --- | --- | --- |
| O=C(NCCCNc1nc(Nc2cccc(NC(=O)N3CCCC3)c2)ncc1I)c1cccs1 [BX-795] | significantly reduced | normalized | cell division occurred in some of the cells |  |  |
| O=C(N[C@@H](COc1ccc2[nH]c(=O)[nH]c2c1)c1ccccc1)c1cccn(Cc2ccc(F)c(F)c2)c1=O [PDK1 inhibitor 7] |  |  |  | ≥ 40 | ≥ 20 |
